# Experimental data published in publication PMC6422423, “Constitutively active BRS3 is a genuinely orphan GPCR in placental mammals” (PLoS Biology, 2019).
# Entries after “also recorded” stand apart in the source; their conditions may differ. *1 amine or outer side, *2 acyl side, *3 side chain or, on linkers, in order; H or OH if unused. Where a SMILES comes first, the peptide text is derived from it. Bridges are numbered along the chain shown (N, C = ends). [ ]: non-standard residue; d: D form. X1 = CC(=O)NC(C(=O)OC(C(C)C)C(N[*:1])C(=O)[*:2])C(O)C(C)C; PhLac = O=C(O)[CH](O)Cc1ccccc1; NMeT = CN[CH](C(=O)O)[CH](C)O; NMeA = CN[CH](C)C(=O)O; NMeDha = C=C(NC)C(=O)O
# Columns and labels:
# GPR39 = conditions: cited from earlier work
# Source text: Coevolution of GPCR–ligand pairs appears more pronounced in the polypeptide family, and there are approximately 30 orphan GPCRs from the polypeptide family, in which endogenous peptide ligands are predicted to bind to and activate these orphan GPCRs. Since GPCRs from the polypeptide family were considered to be paired with natural polypeptide ligands, many studies aim to identify endogenous peptides to deorphanize these orphan GPCRs in the polypeptide family. According to the evolution of GPCR-peptide pairs, after the 2R event during the origin of vertebrates, most orphan GP ...
# [1] = test system: pcDNA-transfected HEK293 cells; assay: Luciferase reporter, N-terminal peptide stimulated, empty vector; assay type: cell-based, human; conditions: 1,000 nM peptide 12 h
# Procedure: (§1) To detect constitutive activity of BRS3, HEK293 cells were seeded in 24-well plates and cotransfected with the CRE/NFAT-RE/SRF-RE/SRE luciferase reporter plasmids (50 ng), the BRS3 from different species, or BRS3 mutants with different doses (10 ng/50 ng/150 ng); after 24 h, cells were further incubated in serum-free media for another 12 h before luciferase assay. As for peptide supplementation treatment, HEK293 cells were cotransfected with the CRE/NFAT-RE/SRF-RE/SRE luciferase reporter plasmids (50 ng) and various genes (300 ng) of the bombesin receptor family. […] Luciferase activities were determined using luciferase assay kits (Beyotime, Shanghai, China) and normalized to β-galactosidase activity. All experiments were performed at least three times in triplicates. HEK293 cells transfected with pcDNA were used as a blank control in all luciferase experiments, and the fold was calculated compared to blank control.
# [2] = test system: N-aBRS3 (aardvark BRS3 with truncated N terminus); assay: Luciferase reporter, N-terminal peptide stimulated, truncated receptor; assay type: cell-based, Orycteropus afer; conditions: 1,000 nM peptide 12 h, HEK293
# Procedure: as §1
# N-tBRS3 (turtle) = assay: as above; assay type: cell-based, Chrysemys picta; conditions: 1,000 nM, 12 h, HEK293
# Procedure: as §1
# [3] = test system: N-BRS3 receptors of placental mammals (N-hBRS3, N-mBRS3, and N-aBRS3); assay: Luciferase reporter, N-terminal peptide stimulated, pooled; assay type: cell-based, human, mouse, aardvark; conditions: CRE/NFAT-RE/SRF-RE; 1,000 nM, 12 h, HEK293
# Procedure: as §1
# N-sBRS3 (spotted gar) = assay: Luciferase reporter, N-terminal peptide stimulated, truncated receptor; assay type: cell-based, Lepisosteus oculatus; conditions: 1,000 nM, 12 h, HEK293
# Procedure: as §1
# N-cBRS3 (chicken) = assay: as above; assay type: cell-based, Gallus gallus; conditions: 1,000 nM, 12 h, HEK293
# Procedure: as §1
# [4] = test system: N-mBRS3 (mouse BRS3 with truncated N terminus); assay: as above; assay type: cell-based; conditions: 1,000 nM peptide 12 h, HEK293
# Procedure: as §1
# [5] = test system: N-hBRS3 (human BRS3 with truncated N terminus); assay: as above; assay type: cell-based; conditions: 1,000 nM peptide 12 h, HEK293
# Procedure: as §1
# [6] = test system: BRS3 of placental mammals (hBRS3, mBRS3, and aBRS3); assay: Luciferase reporter, constitutive Gq activity with inhibitor, pooled; assay type: cell-based, human, mouse, aardvark; conditions: inhibitor 25 μM, 12 h, HEK293
# Procedure: as §1
# [7] = test system: BRS3 receptors in nonplacental vertebrates; assay: ERK1/2 phosphorylation, nonplacental pooled; assay type: cell-based, koala, platypus, chicken, turtle, frog, and spotted gar; conditions: cBRS3, tBRS3, sBRS3; inhibitor 25 μM 1 h, then GRP or NMB 1 μM 5 min; HEK293
# Procedure: For ERK1/2 phosphorylation, HEK293 cells were seeded in 24-well plates and transfected with GRPR, NMBR, BRS3, mutants of different species’ BRS3, or an empty vector plasmid, pcDNA3.1-V5-His plasmid (300 ng). […] Each sample with an equal amount of protein was mixed with 6×SDS sample buffer, boiled for 5 min, and separated on 10% SDS-polyacrylamide gel electrophoresis (PAGE) before transferring the proteins onto a PVDF membrane. The membranes were then blocked at room temperature for 1 h with 5% milk powder in Tris-buffered saline-Tween (TBST), followed by subsequent incubation at 4°C overnight in TBST containing the different primary antibodies (1:1,000 dilution). After washing three times (10 min each time) with TBST, the membranes were incubated for 1 h in TBST containing the secondary antibodies (1:2,000 dilution), followed by washing three times (10 min each time) with TBST, prior to detection by chemiluminescence.
# [8] = test system: BRS3 receptors in nonplacental vertebrates; assay: Intracellular calcium assay, nonplacental pooled; assay type: cell-based, koala, platypus, chicken, turtle, frog, and spotted gar; conditions: cBRS3, tBRS3, sBRS3; inhibitor 25 μM 1 h, then GRP or NMB 10 nM; HEK293
# Procedure: Intracellular calcium was measured using the non-wash calcium assay Fluo8 kit (ab112129, Abcam) according to the manufacturer’s instructions. Briefly, HEK293 cells were seeded in 24-well plates and were transfected with GRPR, NMBR, BRS3, or the empty vector plasmid pcDNA3.1-V5-His (300 ng) and incubated overnight at 37°C with 5% CO2. The next day, the cells were replated into a 96-well assay plate (black plate and clear bottom). After 12 h, growth media were aspirated, and calcium dye was added. […] The basal fluorescence intensity was recorded 15 times at 1 Hz for […]. The results were normalized to the average basal fluorescence intensity in ratio, and the peak response was used for the result calculation. Calcium fold was calculated using no stimulation data as standard value.
# human BRS3 (hBRS3) = assay: Luciferase reporter, constitutive activity (WT, mutants, truncated; with/without inhibitor); assay type: cell-based; conditions: 25 μM inhibitor 12 h, HEK293, vs blank
# Procedure: as §1
# aardvark BRS3 (aBRS3) = assay: as above; assay type: cell-based, Orycteropus afer; conditions: 25 μM inhibitor 12 h, HEK293, vs blank
# Procedure: as §1
# mouse BRS3 (mBRS3) = assay: as above; assay type: cell-based; conditions: 25 μM inhibitor 12 h, HEK293, vs blank
# Procedure: as §1
molecule,measurement,setting,value
obestatin,Activation of GPR39 (in words),GPR39,activated
same,"Activation of GPR39, contrary view (in words)",GPR39,cannot be activated
"MSQRQSQSPNQTLISITNDTETSSSVVSNDTTHKGWTGDNS-NH2 [N-terminal peptide of mBRS3, synthetic N terminus peptide of mouse BRS3]",CRE luciferase fold,[1]; line 1,0.9705 fold
same,NFAT luciferase fold,[1]; line 1,0.9071 fold
same,SRF luciferase fold,[1]; line 1,0.9788 fold
same,CRE luciferase fold,[1]; line 2,1.0972 fold
same,NFAT luciferase fold,[1]; line 2,1.1044 fold
same,SRF luciferase fold,[1]; line 2,1.0087 fold
same,CRE luciferase fold,[1]; line 3,1.0338 fold
same,NFAT luciferase fold,[1]; line 3,1.0057 fold
same,SRF luciferase fold,[1]; line 3,0.9937 fold
same,CRE luciferase fold,[2]; line 1,1.4026 fold
same,NFAT luciferase fold,[2]; line 1,2.2791 fold
same,SRF luciferase fold,[2]; line 1,1.3458 fold
same,CRE luciferase fold,[2]; line 2,1.3089 fold
same,NFAT luciferase fold,[2]; line 2,1.9413 fold
same,SRF luciferase fold,[2]; line 2,1.2427 fold
same,CRE luciferase fold,[2]; line 3,1.3558 fold
same,NFAT luciferase fold,[2]; line 3,2.1102 fold
same,SRF luciferase fold,[2]; line 3,1.2942 fold
same,Activation of truncated receptor (in words),N-tBRS3 (turtle),cannot be stimulated
same,Activation of truncated receptors (in words),[3],all CRE/NFAT-RE/SRF-RE signaling pathways could be activated
same,Activation of truncated receptor (in words),N-sBRS3 (spotted gar),cannot be stimulated
same,Activation of truncated receptor (in words),N-cBRS3 (chicken),cannot be stimulated
same,CRE luciferase fold,[4]; line 1,1.2458 fold
same,NFAT luciferase fold,[4]; line 1,2.0847 fold
same,SRF luciferase fold,[4]; line 1,1.4898 fold
same,CRE luciferase fold,[4]; line 2,1.0945 fold
same,NFAT luciferase fold,[4]; line 2,1.8235 fold
same,SRF luciferase fold,[4]; line 2,1.6079 fold
same,CRE luciferase fold,[4]; line 3,1.1702 fold
same,NFAT luciferase fold,[4]; line 3,1.9541 fold
same,SRF luciferase fold,[4]; line 3,1.5488 fold
same,CRE luciferase fold,[5]; line 1,1.2968 fold
same,NFAT luciferase fold,[5]; line 1,1.5912 fold
same,SRF luciferase fold,[5]; line 1,1.6244 fold
same,CRE luciferase fold,[5]; line 2,1.4057 fold
same,NFAT luciferase fold,[5]; line 2,1.6741 fold
same,SRF luciferase fold,[5]; line 2,1.7709 fold
same,CRE luciferase fold,[5]; line 3,1.3512 fold
same,NFAT luciferase fold,[5]; line 3,1.6327 fold
same,SRF luciferase fold,[5]; line 3,1.6976 fold
CN1CCN(c2nc(C3=C(c4c[nH]c5ccccc45)C(=O)NC3=O)c3ccccc3n2)CC1 [Sotrastaurin],Inhibition of constitutive Gq signaling (in words),[6],inhibits the constitutively activated Gq signaling pathway
same,Inhibition of ERK phosphorylation (in words),[7],inhibits the phosphorylation levels of ERK
same,Inhibition of Ca2+ mobilization (in words),[8],inhibits Ca^2+ ion levels
C=C1C(=O)NC(C)C(=O)N(C)C(C)C(=O)NC(C(OC(=O)C(NC(C)=O)C(O)C(C)C)C(C)C)C(=O)N(C)C(C(C)OC)C(=O)OC(C)C(NC(C)=O)C(=O)OC(Cc2ccccc2)C(=O)N1C (stereo not drawn) [YM 254890] (Ac-T[PhLac][NMeDha]A[NMeA][X1][NMeT](Me); ester 1-C; configuration not given here),Luciferase fold (constitutive Gq signaling) with inhibitor,human BRS3 (hBRS3); line 1,0.7675 fold
same,Luciferase fold (constitutive Gq signaling) with inhibitor,human BRS3 (hBRS3); line 2,0.8993 fold
same,Luciferase fold (constitutive Gq signaling) with inhibitor,human BRS3 (hBRS3); line 3,0.8334 fold
same,Luciferase fold (constitutive Gq signaling) with inhibitor,aardvark BRS3 (aBRS3); line 1,1.6524 fold
same,Luciferase fold (constitutive Gq signaling) with inhibitor,aardvark BRS3 (aBRS3); line 2,1.8796 fold
same,Luciferase fold (constitutive Gq signaling) with inhibitor,aardvark BRS3 (aBRS3); line 3,1.766 fold
same,Inhibition of constitutive Gq signaling (in words),[6],inhibits the constitutively activated Gq signaling pathway
same,Luciferase fold (constitutive Gq signaling) with inhibitor,mouse BRS3 (mBRS3); line 1,1.3903 fold
same,Luciferase fold (constitutive Gq signaling) with inhibitor,mouse BRS3 (mBRS3); line 2,1.6189 fold
same,Luciferase fold (constitutive Gq signaling) with inhibitor,mouse BRS3 (mBRS3); line 3,1.5046 fold
same,Inhibition of ERK phosphorylation (in words),[7],inhibits the phosphorylation levels of ERK; also recorded: inhibited
same,Inhibition of Ca2+ mobilization (in words),[8],inhibits Ca^2+ ion levels; also recorded: inhibited
